Test results published in patent publication US20200338082A1, “FORMULATIONS, SYSTEMS, AND METHODS FOR THERAPEUTIC TREATMENT” (priority 2017, published 2020).
Structures can show the parent of a compound that is named as a salt.

Experiment: Solubility of chemotherapeutic agents in solubilizing excipients and excipient blends
Type: physicochemical
Conditions: for solubility in organic blends tested: all organic blends: PEG400/Tween, Cremophor or Solutol/PEG400, Cremophor or Solutol/DMA or ethanol/PEG400; for solubility in DMA: compound pre-dissolved in dimethylacetamide (DMA)
Experimental: Eleven compounds and seven solubilizing excipients were obtained from commercial sources (see Table 1). […] The excipients listed comprise all of the organic solubilizers currently approved by the FDA for intravenous use in human patients.
Concentration targets were calculated based on providing the same amount of drug used clinically over the time period typically allotted for each compound (see Table 2 for target concentrations). Each solubilizing mixture was started at the target concentration, and if ineffective, diluted 2-fold successively until solubilization was achieved (sometimes with the help of gentle heating, mixing, or sonication), or until the solution was tested at 1:16 the target concentration, in which case further testing was halted (this concentration is approximately what would be required to hit a target dose with a daily cartridge exchange in a delivery device).
Three primary formulation combinations were tested in this example: • Solvent and co-solvent systems (PEG400 and Tween® 20 or Tween® 80) • Surfactant and co-solvent systems (Cremophor® or Solutol® and PEG400) • Surfactant and solvent/co-solvent systems (Cremophor® or Solutol® and DMA or ethanol and PEG400) For the first two combinations, mixtures were made upfront and solubility of each compound tested within. For the third, the compound was pre-dissolved in either DMA or ethanol and the remaining components then added as a mixture.

| solubility in DMA | SMILES | solubility in organic blends tested | further results |
| --- | --- | --- | --- |
|  | O=c1[nH]cc(F)c(=O)[nH]1 [5-FU, fluorouracil] | insoluble in all of the organic blends tested |  |
|  | N.N.O=C([O-])C1(C(=O)[O-])CCC1.[Pt+2] [carboplatin] | insoluble in all of the organic blends tested |  |
| sufficient to solubilize | CC(=O)O[C@@]12CO[C@@H]1C[C@H](O)[C@@]1(C)C(=O)[C@H](O)C3=C(C)[C@@H](OC(=O)[C@H](O)[C@@H](NC(=O)OC(C)(C)C)c4ccccc4)C[C@@](O)([C@@H](OC(=O)c4ccccc4)[C@H]21)C3(C)C [docetaxel] |  |  |
| sufficient to solubilize | COc1cc([C@@H]2c3cc4c(cc3[C@@H](O[C@@H]3O[C@@H]5CO[C@@H](C)O[C@H]5[C@H](O)[C@H]3O)[C@H]3COC(=O)[C@H]23)OCO4)cc(OC)c1O [etoposide] |  |  |
|  | Nc1ccn([C@@H]2O[C@H](CO)[C@@H](O)C2(F)F)c(=O)n1 [gemcitabine hydrochloride] | insoluble in all of the organic blends tested |  |
|  | Nc1ccn([C@@H]2O[C@H](CO)[C@@H](O)C2(F)F)c(=O)n1 [gemcitabine] |  | solubility of free base instead of the salt (free base versus hydrochloride salt): increased solubility |
|  | CCc1c2c(nc3ccc(OC(=O)N4CCC(N5CCCCC5)CC4)cc13)-c1cc3c(c(=O)n1C2)COC(=O)[C@]3(O)CC [irinotecan] | insoluble in all of the organic blends tested |  |
| sufficient to solubilize | CN(Cc1cnc2nc(N)nc(N)c2n1)c1ccc(C(=O)N[C@@H](CCC(=O)O)C(=O)O)cc1 [methotrexate] |  |  |
| sufficient to solubilize | CC(=O)O[C@H]1C(=O)[C@@]2(C)[C@H]([C@H](OC(=O)c3ccccc3)[C@]3(O)C[C@H](OC(=O)[C@H](O)[C@@H](NC(=O)c4ccccc4)c4ccccc4)C(C)=C1C3(C)C)[C@]1(OC(C)=O)CO[C@@H]1C[C@@H]2O [paclitaxel] |  |  |
| sufficient to solubilize | CC[C@]1(O)C[C@@H]2CN(CCc3c([nH]c4ccccc34)[C@@](C(=O)OC)(c3cc4c(cc3OC)N(C)[C@H]3[C@@](O)(C(=O)OC)[C@H](OC(C)=O)[C@]5(CC)C=CCN6CC[C@]43[C@@H]65)C2)C1 [vinblastine] |  |  |
